Laboratory results: patent US12331053B2, “Method for obtaining amorphous remimazolam besylate” (MOEHS IBERICA, S.L., priority 2019, dated 2025)
Where two headings read alike, the source gives them in different places.

Assays:
[1] = Stability study: storage in climatic chambers, solid form checked by XRPD and DSC; type: physicochemical; details: for solid form stability after storage (XRPD) / solid form stability after storage (XRPD, DSC): 40° C. and 80% relative humidity; for solid form stability after storage (XRPD): 6 months
Protocol: The XRPD analysis was performed using a Siemens model D-5000 X-ray powder diffractometer equipped with a copper anode. The radiation used is CuKα with a wavelength of 1.541838 Å. Scanning parameters: 4-50 degrees 2θ, continuous scan, ratio: 1.2 degrees/minute.
The differential scanning calorimetry (DSC) analysis was performed in a Mettler Toledo 822e apparatus with STARe SW15.00 software. Parameters: range of heating from 25 to 300° C. with a ramp of 20° C./min and a N2 flow of 50 mL/min. The measurement was taken with a closed perforated capsule.
This is proven in the stability results of the product in amorphous form obtained according to assays 1.5 (lyophilization in acetonitrile) and 1.6 (lyophilization in water) indicated in Table 1. To determine said stability, the product was stored in climatic chambers under two different conditions: a) temperature of 40° C. and 80% relative humidity and b) temperature of 25° C. and 60% relative humidity.

[2] = lyophilized alone, without excipients; cited from earlier work
[3] = free base, cited from earlier work

## COC(=O)CC[C@@H]1N=C(c2ccccn2)c2cc(Br)ccc2-n2c(C)cnc21.O=S(=O)(O)c1ccccc1 [Assay 1.5, remimazolam besylate]
[1]
  solid form stability after storage (XRPD): still maintains the initial characteristics in terms of the amorphous form
[1]; 15 days
  solid form stability after storage (XRPD, DSC): still maintains the initial characteristics in terms of the amorphous form
[1]; 30 days
  solid form stability after storage (XRPD, DSC): still maintains the initial characteristics in terms of the amorphous form

## COC(=O)CC[C@@H]1N=C(c2ccccn2)c2cc(Br)ccc2-n2c(C)cnc21.O=S(=O)(O)c1ccccc1 [Assay 1.6, remimazolam besylate]
[1]
  solid form stability after storage (XRPD): still maintains the initial characteristics in terms of the amorphous form
[1]; 15 days
  solid form stability after storage (XRPD, DSC): still maintains the initial characteristics in terms of the amorphous form

## COC(=O)CC[C@@H]1N=C(c2ccccn2)c2cc(Br)ccc2-n2c(C)cnc21.O=S(=O)(O)c1ccccc1 [Comparative Example 3, remimazolam besylate]
[1]; 4° C., one month
  solid form after storage (XRPD): crystalline form 2
[1]; 40° C. and 80% RH, one week
  solid form after storage (XRPD, DSC): crystalline form 2

## COC(=O)CC[C@@H]1N=C(c2ccccn2)c2cc(Br)ccc2-n2c(C)cnc21.O=S(=O)(O)c1ccccc1 [remimazolam besylate]
[2]
  stability after lyophilization: did not result in satisfactory stability

## COC(=O)CC[C@@H]1N=C(c2ccccn2)c2cc(Br)ccc2-n2c(C)cnc21 [remimazolam, methyl 3-{(4S)-8-bromo-1-methyl-6-(pyridin-2-yl)-4H-imidazo[1,2-a][1,4]benzodiazepin-4-yl}propanoate]
[3]; 40° C. and 75% relative humidity, open vial
  storage stability: behaves like a deliquescent solid
[3]; 60° C. and ambient humidity, closed vial
  storage stability: behaves like a deliquescent solid
[3]; stored at 5° C.
  storage stability: stable
